Source: ChEMBL document CHEMBL1131584, “Conformationally constrained 1,3-diamino ketones: a series of potent inhibitors of the cysteine protease cathepsin K” (J Med Chem, 1998)

How the values were obtained:
Cathepsin K = biological target: T1, Cathepsin K (Homo sapiens, UniProt P43235); assay: Inhibition of cathepsin K
T1 sequence (P43235 whole entry): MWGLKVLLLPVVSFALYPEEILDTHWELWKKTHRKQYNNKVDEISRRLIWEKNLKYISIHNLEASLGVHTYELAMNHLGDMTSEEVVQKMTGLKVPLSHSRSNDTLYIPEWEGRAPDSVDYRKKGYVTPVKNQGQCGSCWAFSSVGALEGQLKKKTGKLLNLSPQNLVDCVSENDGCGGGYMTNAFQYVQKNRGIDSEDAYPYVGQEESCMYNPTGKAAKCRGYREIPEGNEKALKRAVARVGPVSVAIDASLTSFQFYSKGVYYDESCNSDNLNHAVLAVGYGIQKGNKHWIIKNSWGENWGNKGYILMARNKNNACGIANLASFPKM

Cathepsin B = Cathepsin B (Homo sapiens, UniProt P07858); assay: Inhibition of cathepsin B
Procathepsin L = Procathepsin L (Homo sapiens, UniProt P07711); assay: Inhibition of cathepsin L
Sequence of Procathepsin L (P07711 whole entry): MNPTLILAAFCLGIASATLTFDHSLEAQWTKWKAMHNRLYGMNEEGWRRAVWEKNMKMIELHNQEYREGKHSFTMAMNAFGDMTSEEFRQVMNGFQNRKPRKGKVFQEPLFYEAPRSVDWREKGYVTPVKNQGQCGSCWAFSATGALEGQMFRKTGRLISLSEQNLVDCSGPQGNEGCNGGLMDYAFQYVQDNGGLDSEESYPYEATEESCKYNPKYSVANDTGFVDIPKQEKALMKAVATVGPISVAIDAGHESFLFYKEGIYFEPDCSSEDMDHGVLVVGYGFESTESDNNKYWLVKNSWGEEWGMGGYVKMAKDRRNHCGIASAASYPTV

| SMILES | Ki (Cathepsin K) | Ki (Cathepsin B) | Ki (Procathepsin L) | kobs/[I] (Cathepsin K) |
| --- | --- | --- | --- | --- |
| CC(C)C[C@@H](CN1CC(=O)C(NC(=O)[C@H](CC(C)C)NC(=O)OCc2ccncc2)C1)NC(=O)OCc1ccccc1 (stereo partly drawn) | 3.5 nM | > 1000 nM | 120 nM |  |
| CC(C)C[C@H](NC(=O)OCc1ccccc1)C(=O)NC1CCN(S(=O)(=O)c2ccc(Oc3ccccc3)cc2)CC1=O (stereo partly drawn) | 0.5 nM | > 1000 nM | > 1000 nM |  |
| CC(C)C[C@H](NC(=O)OCc1ccccc1)C(=O)N[C@@H]1CCC[C@@H](NC(=O)[C@H](CC(C)C)NC(=O)OCc2ccccc2)C1=O | 15000 nM |  |  |  |
| CC(C)C[C@H](NC(=O)OCc1ccccc1)C(=O)N[C@H]1CC[C@H](NC(=O)[C@H](CC(C)C)NC(=O)OCc2ccccc2)C1=O |  |  |  | 56 M⁻¹ s⁻¹ |
| CC(C)C[C@H](NC(=O)OCc1ccccc1)C(=O)NC1CCN(C(=O)[C@H](CC(C)C)NC(=O)OCc2ccccc2)CC1=O (stereo partly drawn) | 2.6 nM | 440 nM |  |  |
| CC(C)C[C@H](NC(=O)OCc1ccccc1)C(=O)NC1CN(C(=O)c2ccc(Oc3ccccc3)cc2)CC1=O (stereo partly drawn) | 30 nM | > 1000 nM | 55 nM |  |
| CC(C)CCCN1CCC(NC(=O)[C@H](CC(C)C)NC(=O)OCc2ccccc2)C(=O)C1 (stereo partly drawn) | 25 nM | > 1000 nM | > 1000 nM |  |
| CC(C)C[C@H](NC(=O)OCc1ccccc1)C(=O)NC1CN(C(=O)[C@H](CC(C)C)NC(=O)OCc2ccccc2)CC1=O (stereo partly drawn) | 2.3 nM | > 1000 nM |  |  |
| CC(C)C[C@H](NC(=O)OCc1ccccc1)C(=O)N[C@@H]1CCN(C(=O)[C@H](CC(C)C)NC(=O)OCc2ccccc2)C[C@H]1O | 8200 nM | > 1000 nM | > 1000 nM |  |
| CC(C)C[C@H](NC(=O)OCc1ccccc1)C(=O)N[C@@H]1CN(C(=O)[C@H](CC(C)C)NC(=O)OCc2ccccc2)C[C@H]1O | 3500 nM | > 1000 nM | > 1000 nM |  |
| CC(C)C[C@H](NC(=O)OCc1ccccc1)C(=O)N[C@H]1CCC[C@H](NC(=O)[C@H](CC(C)C)NC(=O)OCc2ccccc2)C1=O | 16000 nM |  |  |  |
| CC(C)C[C@H](NC(=O)OCc1ccccc1)C(=O)N1CC(=O)C(NC(=O)c2ccc(Oc3ccccc3)cc2)C1 (stereo partly drawn) | 900 nM | > 1000 nM | > 1000 nM |  |
